Measurements taken from patent US9181214B2 (RHIZEN PHARMACEUTICALS SA, priority 2011, dated 2015).

What was measured:
Assay type in all cases: cell-based
HIT-T15 cells = assay: In vitro HIT-T15 cyclic AMP assay; conditions: cAMP
Experimental: C. In Vitro HIT-T15 Cyclic AMP Assay:
(§1) cAMP measurements were done using a Cisbio dynamic 2 HTRF kit (Cisbio, Bedford, Mass.) according to the manufacturer's protocol. Briefly, HIT-T15 cells were harvested, counted and plated at 4000 cells/5 ul PBS-BSA solution in a black 384 welled small volume plate. Cells were treated with desired concentrations of compounds and incubated for 60 min at room temperature. Lysis buffer containing cAMP-d2 and cryptate conjugate were added and incubated for 1 h. HRTF ratio was measured on a microplate reader (BMG Labtech., Germany) at an excitation wavelength of 337 nm and emission wavelengths of 665 and 615 nm with an integration time of 400 μsec. Data were analyzed using Graphpad Prism (Graphpad software; San Diego Calif.) for EC50 determination.

Mouse GPR119 = target: T1, Mouse GPR119 (Mus musculus, UniProt Q7TQP3); assay: In vitro mouse GPR 119 cyclic AMP assay in stably transfected HEK293 cells; conditions: cAMP, HEK293 cells stably transfected with mouse GPR119
T1 construct: expressed in transfected cells
T1 sequence (Q7TQP3 1-335): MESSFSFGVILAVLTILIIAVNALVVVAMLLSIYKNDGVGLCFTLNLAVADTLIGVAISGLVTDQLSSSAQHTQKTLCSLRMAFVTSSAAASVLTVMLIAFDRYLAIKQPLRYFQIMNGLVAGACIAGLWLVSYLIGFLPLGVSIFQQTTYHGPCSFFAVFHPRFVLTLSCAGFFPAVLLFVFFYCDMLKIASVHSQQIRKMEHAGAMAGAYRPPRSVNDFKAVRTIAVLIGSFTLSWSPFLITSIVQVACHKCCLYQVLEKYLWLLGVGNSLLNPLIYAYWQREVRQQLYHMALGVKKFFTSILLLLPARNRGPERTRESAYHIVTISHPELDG
Experimental: B. In Vitro Mouse GPR 119 Cyclic AMP Assay:
as §1, with “HEK293 Cells were stably transfected with Mouse GPR119 expression plasmid DNA using Lipofectamine 2000 (Invitrogen) and maintained in culture. Cells” for “Briefly, HIT-T15 cells”, “1000” for “4000”, “ul” for “ul PBS-BSA solution”

human GPR119 = target: T2, human GPR119 (Homo sapiens, UniProt Q8TDV5); assay: In vitro cyclic AMP assay (Cisbio HTRF) in HEK293 cells transfected with human GPR119; conditions: cAMP, Table I
T2 construct: expressed in transfected cells; host or cells: HEK293 (transient transfection, Lipofectamine 2000)
T2 sequence (Q8TDV5 1-335): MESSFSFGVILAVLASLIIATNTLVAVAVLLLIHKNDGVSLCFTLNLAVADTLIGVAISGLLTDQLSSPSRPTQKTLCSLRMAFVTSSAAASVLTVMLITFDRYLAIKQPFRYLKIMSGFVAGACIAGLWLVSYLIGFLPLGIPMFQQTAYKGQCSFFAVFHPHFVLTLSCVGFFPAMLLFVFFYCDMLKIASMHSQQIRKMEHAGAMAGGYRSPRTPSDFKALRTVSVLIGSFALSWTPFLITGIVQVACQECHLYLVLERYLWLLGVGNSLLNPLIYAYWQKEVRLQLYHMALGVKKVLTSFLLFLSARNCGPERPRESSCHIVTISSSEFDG
Method in brief: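 HEK293 cells transiently transfected with human GPR119 plasmid (or empty vector), replated 24 h later and exposed to compounds for 60 min at room temperature. cAMP measured by HTRF (cAMP-d2/cryptate, 665/620 nm ratio) after 1 h lysis; EC50 from concentration-response curves, also % induction at 10 μM.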

`CC(C)(C)OC(=O)N1CCC(c2nc3cc(-c4ccc(-n5cnnn5)cc4F)ccc3o2)CC1` [EXAMPLE-12, Tert-butyl 4-{5-[2-fluoro-4-(1H-tetrazol-1-yl)phenyl]benzo[d]oxazol-2-yl}piperidine-1-carboxylate] showed an EC50 (HIT-T15 cells) of less than 25 nM, an EC50 (Mouse GPR119) of less than 25 nM and an activation at 10 µM (human GPR119; 1 h, % Induction @ 10 μM) of 83%. For the same compound, the EC50 (human GPR119; Emax varies between 65 to 80%) was no more than 25 nM.
